# Results: patent US6291461A, “Stephacidin antitumor antibiotics” (Bristol-Myers Squibb Company, priority 1999, dated 2001)
# Tests used:
# [1] = test system: A2780/DDP ovarian, mutp53/bcl2+; assay: In vitro cytotoxicity (MTS assay), A2780/DDP; type: cell-based; conditions: Homo sapiens, 72 h
# Experimental: (§1) In vitro cytotoxicity was assessed in human carcinoma cells by the MTS (3-(4,5-dimethylthiazol-2-yl)-5-(3-carboxymethoxyphenyl)-2-(4-sulphenyl)-2H-tetrazolium, inner salt) assay (5). Cells were plated at 4,000 cell/well in 96 well microtiter plates and 24 hours later drugs were added and serial diluted. The cells were incubated at 37° form 72 hours at which time the tetrazolium dye, MTS at 333 μg/ml (final concentration),in combination with the electron coupling agent phenazine methosulfate at 25 μM (final concentration) was added. A dehydrogenase enzyme in live cells reduces the MTS to a form that absorbs light at 492 nm which can be quantitated spectrophotometrically. The greater the absorbance the greater the number of live cells. The results are expressed as an IC50, which is the drug concentration required to inhibit cell proliferation (i.e. absorbance at 492 nm) to 50% of that of untreated control cells.
# [2] = test system: PC3 prostate, testosterone independent; assay: In vitro cytotoxicity (MTS assay), PC3; type: cell-based; conditions: Homo sapiens; PC3, 72 h
# Experimental: as §1
# [3] = test system: HCT116/mdr+ colon, overexpresses Mdr+; assay: In vitro cytotoxicity (MTS assay), HCT116/mdr+; type: cell-based; conditions: Homo sapiens, HCT-116, 72 h
# Experimental: as §1
# LNCaP cells = assay: Apoptosis determination (TUNEL assay), LNCaP; type: cell-based, human; conditions: for % of LNCaP Cells in Apoptosis: 24 h treatment; for induction of apoptosis: testosterone sensitive (LNCaP) cells
# Experimental: (§2) Cells were plated, incubated overnight, treated with compound for 24 hours then harvested by trypsinization. For cell cycle analysis cells were trypsinized, permeated, stained with 50 ug/ml propidium iodide and analyzed by FACS. For apoptosis evaluation (TUNEL assay) cells were permeated and reacted with TdT and fluoresceinated dUTP for 3 hours following the procedure recommended by the APO-Direct kit (Pharmingen).
# [4] = test system: SKBR3 breast, estradiol-independent; assay: In vitro cytotoxicity (MTS assay), SKBR3; type: cell-based; conditions: Homo sapiens, SK-BR-3; SKBR3, 72 h
# Experimental: as §1
# HCT116 colon, parental = assay: In vitro cytotoxicity (MTS assay), HCT116; type: cell-based; conditions: Homo sapiens, HCT-116; HCT116, 72 h
# Experimental: as §1
# [5] = test system: A2780/Tax ovarian, Taxol resistant; assay: In vitro cytotoxicity (MTS assay), A2780/Tax; type: cell-based; conditions: Homo sapiens, 72 h
# Experimental: as §1
# [6] = test system: MCF-7 breast, estradiol sensitive; assay: In vitro cytotoxicity (MTS assay), MCF-7; type: cell-based; conditions: Homo sapiens, MCF7; MCF-7, 72 h
# Experimental: as §1
# A2780 cells = assay: Apoptosis determination (TUNEL assay), A2780; type: cell-based, human; conditions: for % of A2780 Cells in Apoptosis: 24 h treatment; for induction of apoptosis: (A2780)
# Experimental: as §2
# LX-1 lung, sensitive = assay: In vitro cytotoxicity (MTS assay), LX-1; type: cell-based; conditions: Homo sapiens; LX-1, 72 h
# Experimental: as §1
# [7] = test system: HCT116/Topo colon, resistant to etoposide; assay: In vitro cytotoxicity (MTS assay), HCT116/Topo; type: cell-based; conditions: Homo sapiens, HCT-116, 72 h
# Experimental: as §1
# human tumor cell lines = assay: In vitro cytotoxicity against several human tumor cell lines; type: cell-based
# Experimental: as §1
# A2780 ovarian, parental = assay: In vitro cytotoxicity (MTS assay), A2780; type: cell-based; conditions: Homo sapiens, A2780, 72 h
# Experimental: as §1
# [8] = test system: LNCaP prostate, testosterone sensitive; assay: In vitro cytotoxicity (MTS assay), LNCaP; type: cell-based, human; conditions: for IC50: Homo sapiens, LNCaP, 72 h
# Experimental: as §1
# Solubility = type: physicochemical
# p53, mdr or bcl2 = assay: Mechanism of action: mediation by p53, mdr or bcl2; type: cell-based
# [9] = test system: tubulin or topoisomerase II; assay: Mechanism of action: tubulin or topoisomerase II
SMILES,IC50 [1] [nM],IC50 [2] [nM],IC50 [3] [nM],% of LNCaP Cells in Apoptosis (LNCaP cells; 0.1 x 72 hour cytotoxic IC50) [%],% of LNCaP Cells in Apoptosis (LNCaP cells; 1 x 72 hour cytotoxic IC50) [%],% of LNCaP Cells in Apoptosis (LNCaP cells; 5 x 72 hour cytotoxic IC50) [%],% of LNCaP Cells in Apoptosis (LNCaP cells; 10 x 72 hour cytotoxic IC50) [%],% of LNCaP Cells in Apoptosis (LNCaP cells; 20 x 72 hour cytotoxic IC50) [%],induction of apoptosis (LNCaP cells),IC50 [4] [nM],"IC50 (HCT116 colon, parental) [nM]",IC50 [5] [nM],IC50 [6] [nM],% of A2780 Cells in Apoptosis (A2780 cells; 0.1 x 72 hour cytotoxic IC50),% of A2780 Cells in Apoptosis (A2780 cells; 1 x 72 hour cytotoxic IC50),% of A2780 Cells in Apoptosis (A2780 cells; 5 x 72 hour cytotoxic IC50) [%],% of A2780 Cells in Apoptosis (A2780 cells; 10 x 72 hour cytotoxic IC50) [%],% of A2780 Cells in Apoptosis (A2780 cells; 20 x 72 hour cytotoxic IC50) [%],induction of apoptosis (A2780 cells),"IC50 (LX-1 lung, sensitive) [nM]",other results
CC1(C)C=Cc2c(ccc3c4c([nH]c23)C(C)(C)C2CC35CCCN3C(=O)C2(C4)NC5=O)O1 (stereo not shown) [Stephacidin A],6800,2100,6700,0.02,0.00,0.15,5.75,11.81,potent inducers of apoptosis,2150,2100,3600,4200,1%,.8%,21,14,15,potent inducers of apoptosis,4220,"IC50 [7]: 13100 nM; in vivo criteria for acceptable activity (human tumor cell lines; potency judged against applicant's criteria): within our in vivo criteria for acceptable activity; fold less potent (human tumor cell lines; relative potency in vitro, versus the other stephacidin): 10 fold; in vitro cytotoxicity (human tumor cell lines; several human tumor cell lines (Table 3)): potent in vitro cytotoxicity; IC50 (A2780 ovarian, parental): 4000 nM; IC50 [8]: 1000 nM"
CC1(C)C=Cc2c(ccc3c2[N+]([O-])=C2C(C)(C)C4CC56CCCN5C(=O)C4(NC6=O)C4N5C(=O)C67CCCN6C(=O)C56C(C7)C(C)(C)c5c(c7ccc8c(c7n5O)C=CC(C)(C)O8)C6C234)O1 (stereo not shown) [Stephacidin B],430,370,460,0.02,0.00,0.05,4.52,11.13,potent inducers of apoptosis,320,460,260,270,.5%,.2%,1.0,33,5,potent inducers of apoptosis,380,"Solubility (Solubility; hexane): insoluble; Solubility (Solubility; methanol, chloroform, acetone, acetonitrile, dimethyl sulfoxide, acetonitrile/methanol (1:1)): Soluble; Solubility (Solubility; water): insoluble; effects mediated by p53, mdr or bcl2 (p53, mdr or bcl2): not mediated by p53, mdr or bcl2; IC50 [7]: 420 nM; tubulin or topoisomerase II mediated [9]: not tubulin or topoisomerase II mediated; IC50 (A2780 ovarian, parental): 330 nM; IC50 [8]: 60 nM; selectivity in testosterone dependent LNCaP cells ([8]; LNCaP versus other cell lines): Good selectivity"
